According to ChEMBL document CHEMBL1201862, “PubChem BioAssay data set” (2004):
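48-hour exposure; five concentrations; linearly interpolated endpoints. Here, GI50 denotes the concentration required for 50% inhibition of growth.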 Activity calls are given as the source filed them. Rule as the data show it: active = GI50 up to about 1.1 µM and inactive = higher.

Key:
Experiment in all cases: NCI anticancer screen, dose series, 48 h
NCI-H23 = tested on: NCI-H23
Hs-578T = tested on: Hs-578T
T47D = tested on: T47D
MDA-N = tested on: MDA-N
TK-10 = tested on: TK-10
NCI-H460 = tested on: NCI-H460
OVCAR-8 = tested on: OVCAR-8
LOX IMVI = tested on: LOX IMVI
MDA-MB-231 = tested on: MDA-MB-231
MOLT-4 = tested on: MOLT-4
NCI-H522 = tested on: NCI-H522
UACC-62 = tested on: UACC-62
OVCAR-3 = tested on: OVCAR-3
COLO 205 = tested on: COLO 205
A498 = tested on: A498
OVCAR-4 = tested on: OVCAR-4

Cc1ccc(-c2n[nH]c(=O)n2N2C(=O)c3ccccc3C2=O)cc1
GI50 (NCI-H23): > 100 µM (inactive) | GI50 (Hs-578T): > 100 µM (inactive) | GI50 (T47D): 68.9 µM (inactive) | GI50 (MDA-N): > 100 µM (inactive) | GI50 (TK-10): > 100 µM (inactive) | GI50 (NCI-H460): > 100 µM (inactive) | GI50 (OVCAR-8): > 100 µM (inactive) | GI50 (LOX IMVI): > 100 µM (inactive) | GI50 (MDA-MB-231): > 100 µM (inactive) | GI50 (MOLT-4): > 100 µM (inactive) | GI50 (NCI-H522): > 100 µM (inactive) | GI50 (UACC-62): > 100 µM (inactive) | GI50 (OVCAR-3): > 100 µM (inactive)

COC(=O)C1CC2CC1C1C2SC(F)(F)C1(F)F (stereo unspecified)
GI50 (Hs-578T): > 100 µM (inactive) | GI50 (COLO 205): > 100 µM (inactive) | GI50 (T47D): > 100 µM (inactive) | GI50 (MDA-N): > 100 µM (inactive) | GI50 (TK-10): > 100 µM (inactive) | GI50 (A498): > 100 µM (inactive) | GI50 (NCI-H460): > 100 µM (inactive) | GI50 (OVCAR-4): > 100 µM (inactive) | GI50 (OVCAR-8): > 100 µM (inactive) | GI50 (LOX IMVI): > 100 µM (inactive) | GI50 (MDA-MB-231): > 100 µM (inactive) | GI50 (MOLT-4): > 100 µM (inactive) | GI50 (NCI-H522): > 100 µM (inactive) | GI50 (UACC-62): > 100 µM (inactive) | GI50 (OVCAR-3): > 100 µM (inactive)

O=[N+]([O-])C(=C/c1cccc2ccccc12)/C(=C\c1cccc2ccccc12)[N+](=O)[O-]
GI50 (NCI-H23): 1.98 µM (inactive) | GI50 (Hs-578T): 3.01 µM (inactive) | GI50 (COLO 205): 3.44 µM (inactive) | GI50 (T47D): 3.07 µM (inactive) | GI50 (MDA-N): 2.62 µM (inactive) | GI50 (TK-10): 2.17 µM (inactive) | GI50 (A498): 19.3 µM (inactive) | GI50 (NCI-H460): 2.34 µM (inactive) | GI50 (OVCAR-4): 2.91 µM (inactive) | GI50 (OVCAR-8): 2.42 µM (inactive) | GI50 (LOX IMVI): 1.61 µM (inactive) | GI50 (MDA-MB-231): 2.1 µM (inactive) | GI50 (MOLT-4): 0.984 µM (active) | GI50 (NCI-H522): 1.37 µM (inactive) | GI50 (UACC-62): 1.71 µM (inactive) | GI50 (OVCAR-3): 4.02 µM (inactive)

O=C(O)CNCCc1ccccc1
GI50 (NCI-H23): > 100 µM (inactive) | GI50 (Hs-578T): > 100 µM (inactive) | GI50 (COLO 205): > 100 µM (inactive) | GI50 (T47D): > 100 µM (inactive) | GI50 (MDA-N): > 100 µM (inactive) | GI50 (TK-10): > 100 µM (inactive) | GI50 (A498): > 100 µM (inactive) | GI50 (NCI-H460): > 100 µM (inactive) | GI50 (OVCAR-4): > 100 µM (inactive) | GI50 (OVCAR-8): > 100 µM (inactive) | GI50 (LOX IMVI): > 100 µM (inactive) | GI50 (MDA-MB-231): > 100 µM (inactive) | GI50 (NCI-H522): > 100 µM (inactive) | GI50 (UACC-62): > 100 µM (inactive) | GI50 (OVCAR-3): > 100 µM (inactive)

[O-]/[N+](=N/c1ncc(-c2ccccc2)cn1)c1ncc(-c2ccccc2)cn1
GI50 (NCI-H23): > 100 µM (inactive) | GI50 (Hs-578T): > 76.6 µM (inactive) | GI50 (COLO 205): > 100 µM (inactive) | GI50 (T47D): > 79.8 µM (inactive) | GI50 (MDA-N): > 100 µM (inactive) | GI50 (TK-10): > 100 µM (inactive) | GI50 (A498): > 100 µM (inactive) | GI50 (NCI-H460): > 100 µM (inactive) | GI50 (OVCAR-4): 54.6 µM (inactive) | GI50 (OVCAR-8): > 96.6 µM (inactive) | GI50 (LOX IMVI): 43.4 µM (inactive) | GI50 (MDA-MB-231): > 100 µM (inactive) | GI50 (MOLT-4): > 64.6 µM (inactive) | GI50 (NCI-H522): 14.8 µM (inactive) | GI50 (UACC-62): > 100 µM (inactive) | GI50 (OVCAR-3): > 83.8 µM (inactive)

CN(C)/N=C1\CC(c2ccccc2)C(C#N)(C#N)C1(C#N)C#N (stereo unspecified)
GI50 (NCI-H23): 24.1 µM (inactive) | GI50 (Hs-578T): 29.7 µM (inactive) | GI50 (COLO 205): 5.56 µM (inactive) | GI50 (T47D): 21 µM (inactive) | GI50 (MDA-N): 20.8 µM (inactive) | GI50 (TK-10): 17.5 µM (inactive) | GI50 (A498): 18.2 µM (inactive) | GI50 (OVCAR-4): 33.2 µM (inactive) | GI50 (OVCAR-8): 21.1 µM (inactive) | GI50 (LOX IMVI): 27.5 µM (inactive) | GI50 (MDA-MB-231): 21.7 µM (inactive) | GI50 (MOLT-4): 4.53 µM (inactive) | GI50 (NCI-H522): 12.2 µM (inactive) | GI50 (UACC-62): 16 µM (inactive)

O=C(Nc1ccccc1)N1CC(CN2CCN(c3ccccc3)CC2)OC1=O (stereo unspecified)
GI50 (NCI-H23): > 100 µM (inactive) | GI50 (Hs-578T): 67 µM (inactive) | GI50 (COLO 205): > 100 µM (inactive) | GI50 (T47D): > 100 µM (inactive) | GI50 (MDA-N): > 100 µM (inactive) | GI50 (TK-10): > 100 µM (inactive) | GI50 (A498): > 100 µM (inactive) | GI50 (NCI-H460): > 100 µM (inactive) | GI50 (OVCAR-4): > 100 µM (inactive) | GI50 (LOX IMVI): > 100 µM (inactive) | GI50 (MDA-MB-231): > 100 µM (inactive) | GI50 (MOLT-4): > 100 µM (inactive) | GI50 (NCI-H522): 80.9 µM (inactive) | GI50 (UACC-62): > 100 µM (inactive)

CCCCCCCCC/C=C1\CC(CO)(COC(=O)c2ccccc2)OC1=O (stereo unspecified)
GI50 (NCI-H23): 19.4 µM (inactive) | GI50 (Hs-578T): 17.3 µM (inactive) | GI50 (COLO 205): 16.6 µM (inactive) | GI50 (T47D): 29.1 µM (inactive) | GI50 (MDA-N): 16.6 µM (inactive) | GI50 (TK-10): 18.6 µM (inactive) | GI50 (A498): 26 µM (inactive) | GI50 (NCI-H460): 16 µM (inactive) | GI50 (OVCAR-4): 35.1 µM (inactive) | GI50 (MDA-MB-231): 19.3 µM (inactive) | GI50 (MOLT-4): 38.2 µM (inactive) | GI50 (NCI-H522): 17.9 µM (inactive) | GI50 (UACC-62): 25.4 µM (inactive) | GI50 (OVCAR-3): 22.4 µM (inactive)

CCCCC1=NNC(=O)C1
GI50 (NCI-H23): > 100 µM (inactive) | GI50 (Hs-578T): 4.9 µM (inactive) | GI50 (COLO 205): > 100 µM (inactive) | GI50 (T47D): > 100 µM (inactive) | GI50 (MDA-N): > 100 µM (inactive) | GI50 (A498): > 100 µM (inactive) | GI50 (NCI-H460): > 100 µM (inactive) | GI50 (OVCAR-4): > 100 µM (inactive) | GI50 (OVCAR-8): > 100 µM (inactive) | GI50 (MDA-MB-231): > 100 µM (inactive) | GI50 (MOLT-4): > 100 µM (inactive) | GI50 (NCI-H522): > 100 µM (inactive) | GI50 (UACC-62): > 100 µM (inactive) | GI50 (OVCAR-3): > 100 µM (inactive)
